Target: T1, DAT (Drosophila melanogaster, UniProt Q94521)
T1 construct: gene speck; construct, tags and host of the DAT used for ITC not described
Experiment: ITC
Type: binding

T1 sequence (Q94521 36-275): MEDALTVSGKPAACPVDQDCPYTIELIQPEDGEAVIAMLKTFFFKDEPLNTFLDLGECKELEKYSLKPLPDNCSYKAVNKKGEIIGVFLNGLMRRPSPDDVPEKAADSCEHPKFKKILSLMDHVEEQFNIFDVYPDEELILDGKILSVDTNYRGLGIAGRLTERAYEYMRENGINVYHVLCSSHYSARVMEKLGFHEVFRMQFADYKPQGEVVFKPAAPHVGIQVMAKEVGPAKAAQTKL

Kd: 3.7 ± 0.1 µM
SMILES: CC(=O)SCCNC(=O)CCNC(=O)[C@H](O)C(C)(C)COP(=O)(O)OP(=O)(O)OC[C@H]1O[C@@H](n2cnc3c(N)ncnc32)[C@H](O)[C@@H]1OP(=O)(O)O [acetyl-CoA]
